According to patent US11433082B2, “Composition containing sulfoalkyl ether cyclodextrin and latanoprost” (CyDex Pharmaceuticals, Inc., priority 2008, dated 2022):
Read-outs that look alike come from different tables or passages of the source.

Assays:
Assay type in all cases: physicochemical
[1] = Phase solubility of latanoprost in the presence of SBE-β-CD (CAPTISOL); conditions: for pH: filtered supernatant
Protocol: SAE-CD increases the aqueous solubility of latanoprost. The phase solubility curve (FIG. 1) for latanoprost in the presence of SBE-β-CD (CAPTISOL®) was obtained according to Example 5. The intrinsic solubility of latanoprost in water, and in the absence of any solubilizing agent, is about 40 μg/mL. The invention provides a method of increasing the solubility of latanoprost in an aqueous composition, the method comprising including SAE-CD and latanoprost in the aqueous composition, wherein the molar ratio of SAE-CD to latanoprost, pH, concentration of SAE-CD, and concentration of latanoprost are as defined herein. In some embodiments, the SAE-CD increases the aqueous solubility of latanoprost by at least 10-fold.
Aqueous compositions containing latanoprost and different amounts of SBE-β-CD were prepared. Latanoprost (1 mg was measured into aluminum weighing boats (size 4×12×4 mm) by using a microbalance. The boats were put into the amber glass vials (Kimble vial, 1 dram) with Teflon-lined screw caps. Using a Rainin pipetman, 2.0 mL of SBE-β-CD test solution (0, 5, 10, or 20% w/v) were added to each vial. Each vial was capped, vortexed, placed on a rocker platform and gently mixed at room temperature. After 24 hours, the test vials were removed from the rocker platform, the solutions were centrifuged at 2500 rpm for 5 min, and the supernatants were filtered through 0.22 micron Millipore PVDF Millex-GV filters and the pH measured. The latanoprost in the aliquots was assayed by HPLC.

[2] = Hydrolytic stability of aqueous compositions of latanoprost at 60° C.; conditions: compared to a solution excluding SAE-CD
Protocol: Latanoprost was measured in weighting boats (size 4×12×4 mm) by using a microbalance. The boats were put into 50 mL volumetric flask and 10 mM or 100 mM isotonic phosphate buffer (pH 5.5, 6.7 and 8.0) was added to the flask. The flask was shaken, sonicated and vortexed over an hour. The solution was filtered through a PVDF filter with 20 mL of plastic syringe. SBE-β-CyD 0, 1, 2.5, 5% w/v or BAK 0.02% were measured into 6-dram amber vials, and the filtered latanoprost solution (12 mL) was added to each vials. The vials were shaken for a few minutes at R.T, and then there were kept at 60° C. At various time points, the latanoprost in the aliquots was assayed by HPLC and the solution pH's were measured.

[3] = Photolytic (UV-B) stability of aqueous compositions of latanoprost; conditions: SAE-CD 1% or 5% w/v, pH 6.7, UV-B, compared to a solution excluding SAE-CD
Protocol: Latanoprost was measured in weighing boats (size 4×12×4 mm) by using a microbalance. The boats were put into 50 mL volumetric flask and 100 mM isotonic phosphate buffer (pH 6.7) was added to the flask. The flask was shaken, sonicated and vortexed over an hour. The solution was filtered through a PVDF filter with 20 mL of plastic syringe. SBE-β-CD 0, 1, 5% w/v and BAK 0.02% w/v were measured into each 10 mL volumetric flask and the filtered latanoprost solution were added to them. The flasks were shaken for a few minutes at R.T, and then these solutions and XALATAN® were put into quartz vessels. The Rayonet photochemical chamber reactor was used for the irradiation with RMR-3000A lamp. At various time points, the latanoprost in the aliquots was assayed by HPLC, and the solution pH's were measured before and after the light irradiation.

In the case of `CC(C)OC(=O)CCC/C=C\C[C@@H]1[C@@H](CC[C@@H](O)CCc2ccccc2)[C@H](O)C[C@@H]1O` [Latanoprost, isopropyl (Z)-7-[(1R,2R,3R,5S)-3,5-dihydroxy-2-[(3R)3-hydroxy-5-phenylpentyl]-cyclopentyl]hept-5-enoate], the solubility at 24 h ([1]; aqueous 5% w/v SBE-β-CD (CAPTISOL) solution, pH 7.41, aqueous with cosolvent or surfactant or cyclodextrin, thermodynamic from solid, with 5% w/v CAPTISOL, room temperature, 24 hours, read-out: Latanoprost (solubility)) is reported as > 500 µg/mL, the solubility at 24 h ([1]; aqueous 10% w/v SBE-β-CD (CAPTISOL) solution, pH 6.93, aqueous with cosolvent or surfactant or cyclodextrin, thermodynamic from solid, with 10% w/v CAPTISOL, room temperature, 24 hours, read-out: Latanoprost (solubility)) is reported as > 500 µg/mL and the solubility at 24 h ([1]; aqueous SBE-β-CD (SAE-CD, CAPTISOL) solution, aqueous with cosolvent or surfactant or cyclodextrin, thermodynamic from solid, solutions containing at least 5% w/v of SAE-CD, read-out: solubility of latanoprost) is reported as > 500 µg/mL. The solubility at 24 h ([1]; aqueous test solution without SBE-β-CD (0% w/v), pH 8.57, water, thermodynamic from solid, without CAPTISOL, room temperature, 24 hours, read-out: Latanoprost (solubility)) was 40 µg/mL, the pH ([1]; with 5% w/v CAPTISOL) was 7.41 and the pH ([1]; with 10% w/v CAPTISOL) was 6.93. The pH ([1]; without CAPTISOL) was 8.57, the solubility ([1]; water, thermodynamic from solid, in the absence of any solubilizing agent, read-out: intrinsic solubility of latanoprost in water) was ~40 µg/mL and the “hydrolytic degradation of latanoprost” value ([2]; SAE-CD 1% or 5% w/v, pH 5.5 and 6.7, 60° C.) was “sufficient to suppress hydrolytic degradation”. For the same molecule, the “hydrolytic degradation of latanoprost” value ([2]; SAE-CD, pH 8, 60° C.) was “substantially reduce hydrolytic degradation” and the “photolytic degradation of latanoprost” value [3] was “sufficient to suppress photolytic degradation”.
